Test results as given in US6348445B1, “Biologically active peptides with reduced toxicity in animals and a method for preparing same” (priority 1992, dated 2002).
≈ marks a conversion by molar mass, not a printed value. *1 amine or outer side, *2 acyl side, *3 side chain or, on linkers, in order; H or OH if unused. Where a SMILES comes first, the peptide text is derived from it. [ ]: non-standard residue; d: D form. The star is where a group is joined. X1 = O=C([C@H](CCCCNCS(=O)(=O)O)N[*:1])[*:2]; Octanoyl = CCCCCCCC(=O)*

Tests used:
C. albicans ATCC 90028 = type: cell-based; details: ATCC 90028
Procedure: The procedure for the anti-bacterial assay is based upon the guidelines of the National Committee for Clinical Laboratory Standards, Document M7-T2, Volume 8, No. 8, 1988, which document is entirely incorporated herein by reference.
Stock solutions of peptides, with and without the appropriate substitutions, were prepared at a concentration of 512 μg/ml in sterile deionized distilled water and stored at −70° C.
The stock peptide solution was diluted in serial dilutions (1:2) down the wells of a microtiter plate so that the final concentrations of peptides in the wells were 0.25, 0.50, 1, 2, 4, 8, 16, 32, 64, 128 and 256 μg/ml. 1-5×10^5 CFUs/ml of either S. aureus ATCC 25923, E. coli ATCC 25922, P. aeruginosa ATCC 27853, or C. albicans, were added to the wells in full strength Mueller Hinton broth (BBL 11443) from a mid-log culture. The inoculum was standardized spectrophotometrically at 600 nm and was verified by colony counts. The plates were incubated for 16-20 hours at 37° C., and the minimal inhibitory concentration (MIC) for each peptide was determined. Minimal inhibitory concentration is defined as the lowest concentration of peptide which produces a clear well in the microtiter plate. The minimal inhibitory concentration of each of the peptides with and/or without the appropriate substitutions is given in Table I below.
(§1) The in vitro anti-microbial activities of the methane sulfonate derivatives were determined according to the methods described in Examples 1 and 2. The activities against ATCC strains of S. aureus, E. coli, P. aeruginosa, and C. albicans, and the hemolysis of red blood cells were compared to the parent compound (Table IV). The activities for Compound 843 (Oct-SEQ ID NO:143) methane sulfonate against clinical strains of P. aeruginosa isolated from cystic fibrosis patients were compared to the parent compound (Table V). The activity for Compound 469 (Oct-SEQ ID NO:27) methane sulfonate against P. gingivalis was compared to the parent compound (Table VI).

[1] = system: E. coli ATCC strain 25922; experiment: Minimal Inhibitory Concentration, microtiter broth dilution; type: cell-based; details: ATCC strain 25922
In short: (§2)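 Peptides serially diluted 1:2 to final 0.25–256 μg/ml in Mueller Hinton broth, inoculated with 1-5×10^5 CFUs/ml from mid-log culture. Incubated 16-20 hours at 37° C. MIC = lowest peptide concentration giving a clear well.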

[2] = system: P. aeruginosa strain ATCC 27853; type: cell-based; details: ATCC 27853
In short: as §2

S. aureus ATCC 29213 = type: cell-based; details: ATCC 29213
red blood cells = experiment: hemolysis of red blood cells; type: cell-based
Procedure: as §1

A. viscosus = experiment: anaerobic anti-microbial susceptibility test (MIC); type: cell-based; details: 24-48 hours
C. albicans = type: cell-based
In short: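 Peptides serially diluted 1:2 to final 0.25–256 μg/ml; inoculum 1-5×10^5 CFU/ml from mid-log culture in full-strength Mueller Hinton broth. Incubated 16-20 h at 37° C. MIC taken as lowest peptide concentration giving a clear well.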

S. mutans = experiment: anaerobic anti-microbial susceptibility test (MIC); type: cell-based; parameters: unit not given here; details: 24-48 hours

Structure (SMILES)	MIC P. gingivalis ATTC 33277 (P. gingivalis) [µg/mL]	MIC C. albicans ATCC 90028 (C. albicans ATCC 90028) [µg/mL]	MIC E. coli ATCC 25922 [1] [µg/mL]	MIC P. aeruginosa ATCC 27853 [2] [µg/mL]	MIC S. aureus ATCC 29213 (S. aureus ATCC 29213) [µg/mL]	MIC P. gingivalis (strain) 9-14K-1 (P. gingivalis; anaerobic, 24-48 hours) [μl/ml]	MIC P. gingivalis (strain) 381 (P. gingivalis; anaerobic, 24-48 hours) [μl/ml]	MIC P. gingivalis (strain) 450 (P. gingivalis; anaerobic, 24-48 hours) [μl/ml]	MIC P. gingivalis (strain) A7A1-28 (P. gingivalis; anaerobic, 24-48 hours) [μl/ml]	MIC P. gingivalis (strain) FAY-19M-1 (P. gingivalis; anaerobic, 24-48 hours) [μl/ml]	% Hemolysis (500 μg/ml) (red blood cells) [%]	MIC A. viscos (A. viscosus) [μl/ml]	Minimal Inhibitory Concentration CA (C. albicans) [µg/mL]	MIC S. mutans (S. mutans)	Minimal Inhibitory Concentration E [1] [µg/mL]	Minimal Inhibitory Concentration P [2] [µg/mL]
CCCCCCCC(=O)N[C@@H](CCCCNCS(=O)(=O)O)C(=O)N[C@H](C(=O)N[C@@H](C)C(=O)NCC(=O)N[C@@H](CCCCNCS(=O)(=O)O)C(=O)N[C@H](C(=O)N[C@@H](C)C(=O)N[C@@H](CCCCNCS(=O)(=O)O)C(=O)N[C@H](C(=O)N[C@@H](C)C(=O)NCC(=O)N[C@@H](CCCCNCS(=O)(=O)O)C(=O)N[C@H](C(=O)N[C@@H](C)C(=O)N[C@@H](CCCCNCS(=O)(=O)O)C(=O)N[C@H](C(=O)N[C@@H](C)C(=O)NCC(=O)N[C@@H](CCCCNCS(=O)(=O)O)C(=O)N[C@H](C(=O)N[C@@H](C)C(N)=O)[C@@H](C)CC)[C@@H](C)CC)[C@@H](C)CC)[C@@H](C)CC)[C@@H](C)CC)[C@@H](C)CC [Compound 1662] (Octanoyl-[X1]IAG[X1]IA[X1]IAG[X1]IA[X1]IAG[X1]IA-NH2)	8 (≈ 2.91 µM)	64 (≈ 23.2 µM)	8 (≈ 2.91 µM)	32 (≈ 11.6 µM)	4 (≈ 1.45 µM)	–	–	–	–	–	–	–	–	–	–	–
CCCCCCCC(=O)N[C@@H](CCCCN)C(=O)N[C@H](C(=O)N[C@@H](C)C(=O)NCC(=O)N[C@@H](CCCCN)C(=O)N[C@H](C(=O)N[C@@H](C)C(=O)N[C@@H](CCCCN)C(=O)N[C@H](C(=O)N[C@@H](C)C(=O)NCC(=O)N[C@@H](CCCCN)C(=O)N[C@H](C(=O)N[C@@H](C)C(=O)N[C@@H](CCCCN)C(=O)N[C@H](C(=O)N[C@@H](C)C(=O)NCC(=O)N[C@@H](CCCCN)C(=O)N[C@H](C(=O)N[C@@H](C)C(N)=O)[C@@H](C)CC)[C@@H](C)CC)[C@@H](C)CC)[C@@H](C)CC)[C@@H](C)CC)[C@@H](C)CC [Oct-(SEQ ID NO: 27)-NH2, (Oct-KIAGKIA)3-NH2)] (Octanoyl-KIAGKIAKIAGKIAKIAGKIA-NH2)	4 (≈ 1.83 µM)	64 (≈ 29.2 µM)	4 (≈ 1.83 µM)	4 to 8	2 (≈ 0.914 µM)	4	16	16	4	4	100	16	16	16	2	4
